From patent US7635664B2, “Herbicidal substituted benzoylpyrazoles” (Bayer CropScience AG, priority 2001, dated 2009)

Columns and labels:
[1] = logP determination by HPLC on reversed-phase column, acidic range; type: physicochemical; conditions: for chromatographic logP: reversed-phase C18 HPLC column, pH=2.3; for logP / logP a): marked a): acidic range, 43° C.; for logP: 0.1% aqueous phosphoric acid/acetonitrile gradient, reversed-phase C 18 HPLC; for logP a): 0.1% aqueous phosphoric acid, acetonitrile gradient
Excerpt: (a) Mobile phases for the determination in the acidic range: 0.1% aqueous phosphoric acid, acetonitrile; linear gradient from 10% acetonitrile to 90% acetonitrile—the corresponding measurement results in Table 1 are marked ^a).

weeds [2] = experiment: Pre-emergence test (Example A), weeds; type: in vivo; conditions: soil sprayed 24 hours after sowing; rated after three weeks as % damage vs untreated control
Description: (§1) To produce a suitable preparation of active compound, 1 part by weight of active compound is mixed with the stated amount of solvent, the stated amount of emulsifier is added and the concentrate is diluted with water to the desired concentration.
Seeds of the test plants are sown in normal soil. After 24 hours, the soil is sprayed with the preparation of active compound such that the particular amount of active compound desired is applied per unit area. The concentration of active compound in the spray liquor is chosen such that the particular amount of active compound desired is applied in 1000 liters of water per hectare.
After three weeks, the degree of damage to the plants is rated in % damage in comparison to the development of the untreated control. The figures denote: • 0%=no effect (like untreated control) • 100%=total destruction

weeds [3] = experiment: Post-emergence test (Example B), weeds; type: in vivo; conditions: test plants of a height of 5-15 cm sprayed; rated after three weeks as % damage vs untreated control
Description: as §1
Test plants of a height of 5-15 cm are sprayed with the preparation of active compound such that the particular amounts of active compound desired are applied per unit area. The concentration of the spray liquor is chosen such that the particular amounts of active compound desired are applied in 1000 l of water/ha.
After three weeks, the degree of damage to the plants is rated in % damage in comparison to the development of the untreated control.
The figures denote: • 0%=no effect (like untreated control) • 100%=total destruction

SMILES | activity against weeds, pre-emergence (weeds [2]) | logP [1] | logP a) [1] | other results
CCn1ncc(C(=O)c2ccc(Cl)c(NC(=O)N3CCN(C)C3=O)c2Cl)c1O [Example 1, N-[2,6-dichloro-3-[(1-ethyl-5-hydroxy-1H-pyrazol-4-yl)-carbonyl]-phenyl]-3-methyl-2-oxo-1-imidazolidinecarboxamide] | strong activity |  |  | chromatographic logP [1]: 1.58; activity against weeds, post-emergence (weeds [3]): strong activity
CCn1ncc(C(=O)c2ccc(Cl)c(NC(=O)N(C)OC)c2Cl)c1O [Example 2] | strong activity | (I-2) logP = 1,39^a) |  | activity against weeds, post-emergence (weeds [3]): strong activity
CON(C)C(=O)Nc1c(Cl)ccc(C(=O)c2cnn(C)c2O)c1Cl [Example 3] | strong activity | (I-2) logP = 1.13^a) |  | 
CN1CCN(C(=O)Nc2c(Cl)ccc(C(=O)c3cnn(C)c3O)c2Cl)C1=O [Example 4] | strong activity | (I-2) logP = 1.32^a) |  | 
CCn1ncc(C(=O)c2ccc(Cl)c(NC(=O)N3CCCN(C)C3=O)c2Cl)c1O [Example 5] | strong activity | (I-2) logP = 1.83^a) |  | activity against weeds, post-emergence (weeds [3]): strong activity
CCn1ncc(C(=O)c2ccc(Cl)c(NC(=O)N3CCOCC3)c2Cl)c1O [Example 6] | strong activity | (I-2) logP = 1.13^a) |  | 
CN1CCN(C(=O)Nc2c(Cl)ccc(C(=O)O)c2Cl)C1=O [III-1, 2,4-dichloro-3-[[(3-methyl-2-oxo-1-imidazolidinyl)-carbonyl]-amino]-benzoic acid] |  |  |  | chromatographic logP [1]: 1.35
COC(=O)c1ccc(Cl)c(NC(=O)N2CCN(C)C2=O)c1Cl [IIIa-1, methyl 2,4-dichloro-3-[[(3-methyl-2-oxo-1-imidazolidinyl)-carbonyl]-amino]-benzoate] |  |  |  | chromatographic logP [1]: 1.94
COC(=O)c1ccc(Cl)c(NC(=O)N2CCOCC2)c1Cl [IIIa-6] |  |  | logP = 1.34^a) | 
COC(=O)c1ccc(Cl)c(NC(=O)NN(C)C)c1Cl [IIIa-7] |  |  | logP = 1.64^a) | 
COC(=O)c1ccc(Cl)c(NC(=O)N2CCN(C)CC2)c1Cl [IIIa-8] |  |  | logP = 0.50^a) | 
COC(=O)c1ccc(C(F)(F)F)cc1NC(=O)N(C)OC [IIIa-9] |  |  | logP = 3.35^a) | 
COC(=O)c1ccc(C(F)(F)F)cc1NC(=O)N1CCN(C)C1=O [IIIa-10] |  |  | logP = 2.76^a) | 
